Laboratory results as given in US20250122218A1, “MODULATORS OF CYSTIC FIBROSIS TRANSMEMBRANE CONDUCTANCE REGULATOR” (Vertex Pharmaceuticals Incorporated, priority 2022, published 2025).

Target: T1, CFTR in F508del/MF-HBE cells (Homo sapiens, UniProt P13569, DEL508-508)
T1 construct: human bronchial epithelial (HBE) cells derived from CF subjects heterozygous for F508del and a minimal function CFTR mutation; endogenous in cells; host or cells: primary human bronchial epithelial cells from CF subjects (F508del/MF-HBE)
T1 sequence (P13569 with tags, fused parts or gaps DEL508-508): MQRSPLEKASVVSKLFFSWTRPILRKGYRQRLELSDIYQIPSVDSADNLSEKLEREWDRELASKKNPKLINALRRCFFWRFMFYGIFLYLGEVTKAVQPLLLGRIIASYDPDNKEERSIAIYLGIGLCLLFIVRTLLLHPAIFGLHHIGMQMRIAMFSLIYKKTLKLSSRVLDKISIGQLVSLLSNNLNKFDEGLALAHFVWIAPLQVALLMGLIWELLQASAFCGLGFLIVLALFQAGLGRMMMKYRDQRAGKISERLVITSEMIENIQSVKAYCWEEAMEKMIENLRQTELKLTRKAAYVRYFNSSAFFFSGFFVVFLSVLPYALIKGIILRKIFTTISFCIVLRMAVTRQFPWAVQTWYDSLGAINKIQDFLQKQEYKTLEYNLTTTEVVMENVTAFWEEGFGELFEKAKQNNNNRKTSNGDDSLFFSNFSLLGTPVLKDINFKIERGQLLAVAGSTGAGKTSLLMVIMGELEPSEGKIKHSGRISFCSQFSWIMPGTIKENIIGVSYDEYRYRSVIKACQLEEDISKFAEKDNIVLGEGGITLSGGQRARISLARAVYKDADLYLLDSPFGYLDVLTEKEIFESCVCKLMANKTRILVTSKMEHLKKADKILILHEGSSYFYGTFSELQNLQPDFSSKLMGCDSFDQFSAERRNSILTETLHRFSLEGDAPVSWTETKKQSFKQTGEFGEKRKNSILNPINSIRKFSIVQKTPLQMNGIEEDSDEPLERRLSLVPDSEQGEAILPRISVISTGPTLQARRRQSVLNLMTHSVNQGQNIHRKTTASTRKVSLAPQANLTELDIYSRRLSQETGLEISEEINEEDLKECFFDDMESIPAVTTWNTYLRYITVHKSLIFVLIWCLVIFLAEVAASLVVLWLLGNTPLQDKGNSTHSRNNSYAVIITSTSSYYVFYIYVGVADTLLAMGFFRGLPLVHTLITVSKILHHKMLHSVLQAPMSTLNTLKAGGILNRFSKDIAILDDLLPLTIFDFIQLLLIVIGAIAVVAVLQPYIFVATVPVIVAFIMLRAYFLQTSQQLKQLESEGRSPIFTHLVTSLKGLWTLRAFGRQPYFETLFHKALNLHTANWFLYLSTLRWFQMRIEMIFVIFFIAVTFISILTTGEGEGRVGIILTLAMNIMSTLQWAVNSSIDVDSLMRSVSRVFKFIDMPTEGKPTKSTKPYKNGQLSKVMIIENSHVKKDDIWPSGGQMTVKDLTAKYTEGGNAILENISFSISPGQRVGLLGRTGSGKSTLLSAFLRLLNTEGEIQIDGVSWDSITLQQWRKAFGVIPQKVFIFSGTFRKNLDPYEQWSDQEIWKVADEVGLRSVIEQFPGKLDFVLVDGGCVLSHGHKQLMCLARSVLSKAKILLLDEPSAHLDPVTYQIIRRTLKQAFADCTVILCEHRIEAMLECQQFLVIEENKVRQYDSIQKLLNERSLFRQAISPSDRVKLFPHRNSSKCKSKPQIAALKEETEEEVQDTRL
Assay: Ussing chamber assay of CFTR-mediated short-circuit currents (identification of potentiator compounds)
Type: cell-based
Conditions: potentiator incubated 18-24 hours at 37° C. in combination with 10 μM corrector, in the presence of 20% human serum, CFTR-mediated ISC
In short: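 Short-circuit current was measured in Ussing chambers at 37° C, Vhold 0 mV, 30 μM apical amiloride. CFTR current was defined as the forskolin (20 μM) response relative to the current remaining after BPO/GlyH-101/inhibitor 172 (20 μM each). Before recording, cells had 18-24 h exposure to test potentiators with 10 μM corrector compound in 20% human serum.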

| SMILES | EC50 [nM] |
| --- | --- |
| Cn1cc(N2CCCCC[C@](O)(C(F)(F)F)C3=NN=C(O3)c3nc(c(C(F)(F)F)cc3N)C2=O)cn1 [Compound 109, (6R)-17-Amino-6-hydroxy-12-(1-methylpyrazol-4-yl)-6,15-bis (trifluoromethyl)-19-oxa-3,4,12,18-tetrazatricyclo [12.3.1.12,5] nonadeca-1(18),2,4,14,1 6-pentaen-13-one] | < 500 |
| Nc1cc(C(F)(F)F)c2nc1-c1nnc(o1)[C@@](O)(C(F)(F)F)CCCCCN(Cc1cccc3ccccc13)C2=O [Compound 110, (6R)-17-Amino-6-hydroxy-12-(1-naphthylmethyl)-6,15-bis (trifluoromethyl)-19-oxa-3,4,12,18-tetrazatricyclo [12.3.1.12,5] nonadeca-1(18),2,4,14,1 6-pentaen-13-one] | < 500 |
| Nc1cc(C(F)(F)F)c2nc1-c1nnc(o1)[C@@](O)(C(F)(F)F)CCCCCN(Cc1ccc3ccccc3c1)C2=O [Compound 111, (6R)-17-Amino-6-hydroxy-12-(2-naphthylmethyl)-6,15-bis (trifluoromethyl)-19-oxa-3,4,12,18-tetrazatricyclo [12.3.1.12,5] nonadeca-1(18),2,4,14,1 6-pentaen-13-one] | < 500 |
| Nc1cc(C(F)(F)F)c2nc1-c1nnc(o1)[C@@](O)(C(F)(F)F)CCCCCN(Cc1cc[nH]n1)C2=O [Compound 112, (6R)-17-Amino-6-hydroxy-12-(1H-pyrazol-3-ylmethyl)-6,15-bis (trifluoromethyl)-19-oxa-3,4,12,18-tetrazatricyclo [12.3.1.12,5] nonadeca-1(18),2,4,14,1 6-pentaen-13-one] | > 1000 |
| Nc1cc(C(F)(F)F)c2nc1-c1nnc(o1)[C@@](O)(C(F)(F)F)CCCCCN(Cc1cn[nH]c1)C2=O [Compound 113, (6R)-17-Amino-6-hydroxy-12-(1H-pyrazol-4-ylmethyl)-6,15-bis (trifluoromethyl)-19-oxa-3,4,12,18-tetrazatricyclo [12.3.1.12,5] nonadeca-1(18),2,4,14,1 6-pentaen-13-one] | > 1000 |
| CC(C)(C)c1ccc(CN2CCCCC[C@](O)(C(F)(F)F)C3=NN=C(O3)c3nc(c(C(F)(F)F)cc3N)C2=O)cc1 [Compound 116, (6R)-17-Amino-12-[(4-tert-butylphenyl)methyl]-6-hydroxy-6,15-bis (trifluoromethyl)-19-oxa-3,4,12,18-tetrazatricyclo [12.3.1.12,5] nonadeca-1(18),2,4,14,1 6-pentaen-13-one] | < 500 |
| Cn1ccc(CN2CCCCC[C@](O)(C(F)(F)F)C3=NN=C(O3)c3nc(c(C(F)(F)F)cc3N)C2=O)n1 [Compound 117, (6R)-17-Amino-6-hydroxy-12-[(1-methylpyrazol-3-yl)methyl]-6,15-bis (trifluorom ethyl)-19-oxa-3,4,12,18-tetrazatricyclo [12.3.1.12,5] nonadeca-1(18),2,4,14,1 6-pentaen-13-one] | > 1000 |
| Cn1cc(CN2CCCCC[C@](O)(C(F)(F)F)C3=NN=C(O3)c3nc(c(C(F)(F)F)cc3N)C2=O)cn1 [Compound 118, (6R)-17-Amino-6-hydroxy-12-[(1-methylpyrazol-4-yl)methyl]-6,15-bis (trifluoromethyl)-19-oxa-3,4,12,18-tetrazatricyclo [12.3.1.12,5] nonadeca-1(18),2,4,14,1 6-pentaen-13-one] | > 1000 |
| CC(C)(C)c1ccc(CN2CCCCC[C@](O)(C(F)(F)F)C3=NN=C(O3)c3nc(c(C(F)(F)F)cc3N)C2=O)cn1 [Compound 119, (6R)-17-Amino-12-[(6-tert-butyl-3-pyridyl)methyl]-6-hydroxy-6,15-bis (trifluoromethyl)-19-oxa-3,4,12,18-tetrazatricyclo [12.3.1.12,5] nonadeca-1(18),2,4,14,1 6-pentaen-13-one] | < 500 |
| CC(C)(C)c1ccc(CN2CCCCC[C@](O)(C(F)(F)F)C3=NN=C(O3)c3nc(c(C(F)(F)F)cc3N)C2=O)nc1 [Compound 120, (6R)-17-Amino-12-[(5-tert-butyl-2-pyridyl)methyl]-6-hydroxy-6,15-bis (trifluoromethyl)-19-oxa-3,4,12,18-tetrazatricyclo [12.3.1.12,5] nonadeca-1(18),2,4,14,1 6-pentaen-13-one] | < 500 |
| CC1(C)CCCC[C@](O)(C(F)(F)F)C2=NN=C(O2)c2nc(c(C(F)(F)F)cc2N)C(=O)N(Cc2ccc3c(c2)OC(F)(F)O3)C1 [Compound 124, (6R)-18-amino-13-[(2,2-difluoro-1,3-benzodioxol-5-yl)methyl]-6-hydroxy-11,11-dimethyl-6,16-bis (trifluoromethyl)-20-oxa-3,4,13,19-tetrazatricyclo [13.3.1.12,5]icosa-1(19),2,4,15,1 7-pentaen-14-one] | < 500 |
| Cc1ccccc1CN1CCCCC[C@](O)(C(F)(F)F)C2=NN=C(O2)c2nc(c(C(F)(F)F)cc2N)C1=O [Compound 127, (6R)-17-amino-6-hydroxy-12-(0-tolylmethyl)-6,15-bis (trifluoromethyl)-19-oxa-3,4,12,18-tetrazatricyclo [12.3.1.12,5] nonadeca-1(18),2,4,14,1 6-pentaen-13-one] | < 500 |

The next lines start with the values.

| EC50 [nM] | SMILES |
| --- | --- |
| < 500 | Nc1cc(C(F)(F)F)c2nc1-c1nnc(o1)[C@@](O)(C(F)(F)F)CCCCCN(C13CC(F)(C1)C3)C2=O [Compound 121, (6R)-17-Amino-12-(3-fluoro-1-bicyclo[1.1.1]pentanyl)-6-hydroxy-6,15-bis (trifluorom ethyl)-19-oxa-3,4,12,18-tetrazatricyclo [12.3.1.12,5] nonadeca-1(18),2,4,14,1 6-pentaen-13-one] |
| < 500 | CC12CC(N3CCCCC[C@](O)(C(F)(F)F)c4nnc(o4)-c4nc(c(C(F)(F)F)cc4N)C3=O)(C1)C2 [Compound 122, (6R)-17-Amino-6-hydroxy-12-(3-methyl-1-bicyclo[1.1.1]pentanyl)-6,15-bis (trifluoromethyl)-19-oxa-3,4,12,18-tetrazatricyclo [12.3.1.12,5] nonadeca-1(18),2,4,14,1 6-pentaen-13-one] |
| < 500 | CC(C)(C)C12CC(N3CCCCC[C@](O)(C(F)(F)F)c4nnc(o4)-c4nc(c(C(F)(F)F)cc4N)C3=O)(C1)C2 [Compound 123, (6R)-17-Amino-12-(3-tert-butyl-1-bicyclo[1.1.1]pentanyl)-6-hydroxy-6,15-bis (trifluoromethyl)-19-oxa-3,4,12,18-tetrazatricyclo [12.3.1.12,5] nonadeca-1(18),2,4,14,1 6-pentaen-13-one] |
| < 500 | Nc1cc(C(F)(F)F)c2nc1-c1nnc(o1)[C@@](O)(C(F)(F)F)CCCCCN(C13CCC(CC1)C3)C2=O [Compound 125, (6R)-17-amino-6-hydroxy-12-norbornan-1-yl-6,15-bis (trifluoromethyl)-19-oxa-3,4,12,18-tetrazatricyclo [12.3.1.12,5] nonadeca-1(18),2,4,14,1 6-pentaen-13-one] |
| > 1000 | Nc1cc(C(F)(F)F)c2nc1-c1nnc(o1)[C@@](O)(C(F)(F)F)CCCCCN(c1cccnc1)C2=O [Compound 126, (6R)-17-amino-6-hydroxy-12-(3-pyridyl)-6,15-bis (trifluoromethyl)-19-oxa-3,4,12,18-tetrazatricyclo [12.3.1.12,5] nonadeca-1(18),2,4,14,1 6-pentaen-13-one] |
